PMC4549746, “Zearalenone in the Intestinal Tissues of Immature Gilts Exposed per os to Mycotoxins” (Toxins, 2015)
“Also recorded” adds a separate entry of the source.

Experiments:
[1] = ZEN concentrations and carryover factor in intestinal tissues and liver of pre-pubertal gilts exposed per os (HPLC); format: in vivo; settings: gilts given ZEN 40 μg/kg BW daily per os, 42 days; detection limits 0.003 µg·g^−1 α-ZEL, 0.002 µg·g^−1 β-ZEL
Procedure: The animals were divided into an experimental group (E, n = 18) and a control group (C, n = 21). Group E animals were orally administered ZEN at 40 μg/kg BW. Group C pigs were fed a placebo. The animals were fed complete diets in a restricted feeding regimen (Table 1). The daily dose of ZEN (40 µg/kg BW) was administered to each animal individually, which corresponds to exposure to 957–1014 µg ZEN/kg of a complete diet, depending on daily feed intake. Zearalenone was biosynthesized, purified and standardized by the Department of Chemistry of the Poznań University of Life Sciences. The experiment covered a period of 42 days. The mycotoxin was administered per os daily, in gelatine capsules before the morning feeding. The ZEN dose was adjusted to the body weight of the experimental animals. The mycotoxin was administered in capsules to prevent problems associated with uneven feed intake. Mycotoxin samples were diluted in 300 μL of 96% ethyl alcohol (96% ethyl alcohol, SWW 2442-90, Polskie Odczynniki Chemiczne SA, Gliwice, Poland) to the required dose level (based on body weight). Final solutions were stored at room temperature for 12 h to evaporate the solvent. The animals were weighed every 7 days to update mycotoxin doses for each gilt. Three animals from the experimental group and the control group each were sacrificed on Days 1, 7, 14, 21, 28, 35 and 42 (a total of 6 gilts in each week of exposure), excluding day 1, when only 3 control group animals were scarified. Every week, tissue samples were collected from the porcine gastrointestinal tract (duodenum, first and middle sections, jejunum, ileum, cecum, ascending colon, transverse colon, descending colon, middle section, and the liver, left lobe). Tissue samples were collected from the whole intestinal cross-sections.
Post-mortem tissue samples were collected from the duodenum, jejunum, ileum, cecum, ascending colon, transverse colon, descending colon and the liver after rinsing with phosphate buffer. Pure tissues were stored at −80 °C until shredding and extraction.
Tissue samples (2 g) were homogenized with 9 cm^3 of methanol for 4 min; they were transferred to centrifuge tubes with a minimal amount of the sediment, and the remainder was combined with 5 cm^3 of methanol and repeatedly homogenized. The extracts were combined and centrifuged for 10 min. The supernatant was transferred to a graduated test tube; its volume was read from the scale, and it was evaporated under a stream of nitrogen at a temperature of 60 °C to 0.1–0.2 cm^3 of water. The evaporated product was combined with 2 cm^3 of deionized water, 2 cm^3 of 0.2 M sodium acetate and 500 µL of […] solution. After 16 h of incubation at 37 °C, the reaction was stopped by adding 0.5 cm^3 of acetonitrile. The mixture was quantitatively transferred to a centrifuge tube; it was combined with 10 cm^3 of deionized water and centrifuged for 10 min at 3500 rpm. The supernatant was applied to the Zearala-Test™ column at the rate of 1–2 drops per second. Mycotoxins were eluted from the column with 1.5 mL of methanol; the solvent was evaporated, and the residue was reconstituted with 1 mL of methanol for HPLC analysis.
The concentrations of ZEN and its derivatives were determined by HPLC with the use of the Waters 2695 Separations Module, Waters 2475 Multi λ Fluorescence Detector and Waters 2996 Array Detector. Excitation and emission wavelengths were 274 and 440 nm, respectively. The reverse-phase column was C-18 Nova Pak (3.9 × 150 mm), and the mobile phase was acetonitrile-water-methanol (46:46:8, v/v/v) at a flow rate of 0.5 mL·min^−1. The mycotoxins were quantified by measuring the […] of the peaks based on the relevant calibration curves (correlation coefficient of 0.9996 for ZEN, 0.9989 for α-ZEL and 0.9976 for β-ZEL). Detection limits were determined at 0.001 µg·g^−1 for ZEN, 0.003 µg·g^−1 for α-ZEL and 0.002 µg·g^−1 for β-ZEL. […]

[2] = set-up: method as in PMID 15972077; settings: animal feed naturally contaminated with ZEN and α-ZEL; cited from earlier work
[3] = relative to parent compound ZEN; cited from earlier work

| Structure (SMILES) | concentrations of ZEN metabolites in the digestive tract and the liver [1] | absorbed from the duodenum [2] | estrogenic activity in comparison to ZEN [3] |
| --- | --- | --- | --- |
| C[C@H]1CCC[C@H](O)CCC/C=C/c2cc(O)cc(O)c2C(=O)O1 [α-ZEL, α-zearalenol] | below the sensitivity of the method | 65% | three-fold or even four-fold higher; also recorded: three- to four-fold higher |
| C[C@H]1CCC[C@@H](O)CCC/C=C/c2cc(O)cc(O)c2C(=O)O1 [β-ZEL, β-zearalenol] | below the sensitivity of the method | – | – |
